Test results taken from PMC9000575, “Solution Equilibrium Studies on Salicylidene Aminoguanidine Schiff Base Metal Complexes: Impact of the Hybridization with L-Proline on Stability, Redox Activity and Cytotoxicity” (Molecules, 2022).
Marks after values point to notes of the source that are not given here.

What was measured:
[1] = stability constants of Cu(II) complexes by pH-potentiometry; type: physicochemical; conditions: for logβ [CuLH−1] / logβ [CuLH−2]− / logβ [CuL]+: 25 °C, I = 0.10 M (KCl); for pCu(II) (−log[Cu(II)]): calculated at pH 7.4, cCu(II) = 1 μM, cligand = 10 μM
Experimental: Interaction between Pro-SISC-Me and Cu(II) ions could be studied by pH-potentiometry in water due to the adequate solubility of the species (Figure S7b), and the calculated overall stability constants are collected in Table 2. Based on the titration data, formation of only mono-ligand complexes ([CuL]^+, [CuLH−1], [CuLH−2]^−) was observed even at higher metal-to-ligand ratios. Stability constants for the complexes formed with the more lipophilic SISC were determined in the presence of 30% (v/v) DMSO/H2O (Figure S7a), and for the Cu(II)—Pro-SISC-Me system was studied as well in the same solvent system for comparison (Table 2). […] In the case of SISC, the stability constant could not be obtained for the [CuLH−2]^− species as in its formation pH range (>8) precipitation appeared in the solution. The thiosemicarbazone analogues (STSC and Pro-STSC-Me) also form exclusively mono-ligand complexes ([CuLH]^+, [CuL], [CuLH−1]^−), however, protonated complexes could not be found for SISC and Pro-SISC-Me.
The pH-potentiometric measurements for the determination of the proton dissociation constants of the ligands and the overall stability constants of the metal complexes were carried out at 25.0 ± 0.1 °C in water or in 30% (v/v) DMSO/H2O as solvent and at an ionic strength of 0.10 M (KCl). The titrations were performed with carbonate-free KOH solution of known concentration (0.10 M). The concentrations of the base and the HCl were determined by pH-potentiometric titrations. An Orion 710A pH-meter equipped with a Metrohm combined electrode (type 6.0234.100), and a Metrohm 665 Dosimat burette were used for the titrations. […] The average water ionization constant pKw was 13.76 ± 0.05 (water) or 14.52 ± 0.05 (30% (v/v) DMSO/H2O). The pH-potentiometric titrations were performed in the pH range 2.0–12.5. The initial volume of the samples was 10.0 mL. The ligand concentration was 2 mM and metal ion-to-ligand ratios of 1:1–1:3 were used. The accepted fitting of the titration curves was always less than 0.01 mL. Argon was always passed over the solutions during the titrations. The exact concentration of the ligand stock solutions together with the proton dissociation constants were determined by pH-potentiometric titrations with the use of the computer program HYPERQUAD [44]. It was also utilized to establish the stoichiometry of the complexes and to calculate the stability constants (β(MpLqHr)). β(MpLqHr) is defined for the general equilibrium pM + qL + rH ⇋ MpLqHr as β(MpLqHr) = [MpLqHr]/[M]^p[L]^q[H]^r, where M denotes the metal ion and L the completely deprotonated ligand. In all calculations exclusively, titration data were used from experiments in which no precipitate was visible in the reaction mixture.

[2] = proton dissociation constants by 1H NMR titration; type: physicochemical
Experimental: ^1H NMR spectra recorded for SISC in 30% (v/v) d6-DMSO/H2O (Figure S3) clearly show two deprotonation steps and all the CH protons are sensitive to the changes of the pH. Similarly, the changes in the chemical shifts of the peaks of the aromatic CH and the CH=N protons indicate two steps in the ^1H NMR spectra of Pro-SISC-Me recorded in water (Figure 3a), thus two pKa values were calculated (pK2, pK3 in Table 1). However, this is only true for the major species identified as the E isomer (Figure 3b), while for the other isomer (Z, Figure 3c) only one pKa (7.55 ± 0.02) could be determined. The E and Z geometric isomers are the consequence of the C=N double bond. […] Based on the integrals of the CH=N peaks, the fraction of the E isomer is 86% at pH < 6.5, and it is decreased to 82% reaching pH 11.5; however, the appearance of further minor peaks at pH > 9.8 indicates the presence of other species in low fraction. The same picture is seen when the changes of the CH3 peaks are considered (Figure S4), and only the peak of the CH-COOH proton was sensitive to the first deprotonation process at pH < 3, which confirms that pK1 of Pro-SISC-Me applies to COOH.
The ^1H NMR studies for the ligands were carried out on a Bruker Ultrashield 500 Plus instrument (Billerica, MA, USA). DSS was used as an internal NMR standard and WATERGATE water suppression pulse scheme was used. Spectra were recorded in 10% (v/v) D2O/H2O or in 30% (v/v) DMSO-d6/H2O solvent mixtures in a concentration of 1 mM, respectively, at ionic strength of 0.10 M (KCl).

[3] = Pro-SISC-Me, H2O, major species (E isomer)

Cc1cc(C=NNC(=N)N)c(O)c(CN2CCCC2C(=O)O)c1 (stereo not drawn) [Pro-SISC-Me]
logβ [CuLH−1] ([1]; 30% DMSO): 6.57 ± 0.05
logβ [CuLH−2]− ([1]; 30% DMSO): −4.42 ± 0.06
logβ [CuL]+ ([1]; 30% DMSO): 15.08 ± 0.02
logβ [CuLH−1] ([1]; H2O): 6.96 ± 0.03
logβ [CuLH−2]− ([1]; H2O): −3.22 ± 0.04
logβ [CuL]+ ([1]; H2O): 14.99 ± 0.02
fraction of [CuL]+ at pH 7.4 ([1]; based on the stability constants): 100%
pCu(II) (−log[Cu(II)]) ([1]; 30% DMSO): 13.39
pCu(II) (−log[Cu(II)]) ([1]; H2O): 13.59
pK1 (H3L2+) [2, 3]: ≤2.5 ^c
pK2 (H2L+) [2, 3]: 7.25 ± 0.03 ^c
pK3 (HL) [2, 3]: 9.75 ± 0.03 ^c
pKa ([2]; water, only one pKa could be determined, read-out: pKa of the minor (Z) isomer): 7.55

N=C(N)NN=Cc1ccccc1O [SISC, 2-(2-hydroxybenzylidene)hydrazinecarboximidamide]
logβ [CuLH−1] ([1]; 30% DMSO): 6.28 ± 0.07
logβ [CuL]+ ([1]; 30% DMSO): 14.74 ± 0.02
pCu(II) (−log[Cu(II)]) ([1]; 30% DMSO): 12.08
pK1 (H2L+) ([2]; SISC, 30% DMSO/H2O): 7.68 ± 0.03
pK2 (HL) ([2]; SISC, 30% DMSO/H2O): 10.72 ± 0.03
